PubChem BioAssay AID1996
In brackets after ≈: the same amount, converted by molar mass.

Details: buffer; pH 7.4; 200.0 µM

Q: For O=C1/C(=C/c2ccc(O)cc2)SC(=S)N1CC1CCCO1 (stereo not given), which solubility kinetic is on record?
A: 1.3 µg/mL (≈ 4.04 µM)

Q: For CC1=CCC2C(=O)N(c3ccc(N4CCOCC4)cc3)C(=O)C2C1 (stereo not given), which solubility kinetic is on record?
A: 45.3 µg/mL (≈ 139 µM)

Q: With CCC(CC)C(=O)N1CCN(Cc2nc3ccccc3c(=O)[nH]2)CC1 as the compound, how does the solubility kinetic read?
A: > 51.4 µg/mL

Q: With CCc1ccc(C)c(OC(=O)c2cncc(Br)c2)c1 as the compound, how does the solubility kinetic read?
A: 2.1 µg/mL (≈ 6.56 µM)

Q: Which solubility kinetic does the source give for O=C(CC1CCCCC1)NCc1nc(-c2ccccc2)no1 here?
A: 5.8 µg/mL (≈ 19.4 µM)

Q: Which solubility kinetic does the source give for Cc1noc(C)c1COC(=O)CNC(=O)c1ccc(Cl)cc1 here?
A: > 48.4 µg/mL

Q: With CCC(C(=O)Nc1ccccn1)c1ccccc1 (stereo not given) as the compound, how does the solubility kinetic read?
A: > 36 µg/mL

Q: Which solubility kinetic does the source give for O=C(CC1OCC2CCCN2C1=O)Nc1ccc([N+](=O)[O-])cc1 (stereo not given) here?
A: 45.5 µg/mL (≈ 142 µM)

Q: For Cc1ccc(CN2C(=O)CSC2c2ccc(F)cc2)cc1 (stereo not given), which solubility kinetic is on record?
A: 16.8 µg/mL (≈ 55.7 µM)

Q: With Cc1cccc(CS(=O)(=O)c2ncc(CO)n2C)c1 as the compound, how does the solubility kinetic read?
A: > 42.1 µg/mL

Q: Which solubility kinetic does the source give for CCOC(=O)n1c(=O)n(Cc2ccc(OC)cc2)c2ccccc21 here?
A: 29.5 µg/mL (≈ 90.4 µM)

Q: With O=c1[nH]c(/C=C\c2ccc(O)c(Cl)c2)nc(O)c1[N+](=O)[O-] as the compound, how does the solubility kinetic read?
A: 44 µg/mL (≈ 142 µM)

Q: With Cc1cc(C)c(NC(=O)Cn2c([N+](=O)[O-])cnc2C)c(C)c1 as the compound, how does the solubility kinetic read?
A: 4.1 µg/mL (≈ 13.6 µM)

Q: With O=C(CSc1ccccc1C(=O)O)Nc1ccc2c(c1)OCO2 as the compound, how does the solubility kinetic read?
A: > 49.7 µg/mL

Q: For COc1ccccc1C(=O)NCCC(=O)NCC1CCCCC1, which solubility kinetic is on record?
A: 47.4 µg/mL (≈ 149 µM)

Q: For CN(C)CCOC1c2ccccc2C=Cc2ccccc21.O=C(O)/C=C\C(=O)O, which solubility kinetic is on record?
A: > 59.3 µg/mL

Q: For CN(CC(=O)Nc1cccc(F)c1)C(=O)c1ccc(N2CCOCC2)c([N+](=O)[O-])c1, which solubility kinetic is on record?
A: 33.7 µg/mL (≈ 80.9 µM)

Q: Which solubility kinetic does the source give for Cc1cc(OC(=O)c2ccc(C)c(C)c2)c([N+](=O)[O-])c(=O)[nH]1 here?
A: > 45.3 µg/mL

Q: Which solubility kinetic does the source give for Cc1cc(O)c(CN(C)C)c2c1C(=O)/C(=C/c1ccco1)O2 here?
A: > 44.9 µg/mL

Q: With COC(=O)/C(=C\C(=O)c1ccc([N+](=O)[O-])cc1)Nc1ccc(OC)cc1 as the compound, how does the solubility kinetic read?
A: < 0.4 µg/mL

Q: For CC(C)=CC(=O)N1CC[C@@H](N2CCN(c3ccccc3F)CC2)[C@H](O)C1, which solubility kinetic is on record?
A: > 54.2 µg/mL

Q: Which solubility kinetic does the source give for CC(C)N(Cc1ccccc1)C(=O)COC(=O)c1cc[n+]([O-])cc1 here?
A: > 49.3 µg/mL

Q: With CNc1nc2c(Cl)cc(Cl)cc2s1 as the compound, how does the solubility kinetic read?
A: < 0.2 µg/mL

Q: Which solubility kinetic does the source give for Cn1cc(C(=O)OCC(=O)Nc2ccccc2)c2ccccc21 here?
A: 7.8 µg/mL (≈ 25.3 µM)

Q: With Cc1ccc(C(=O)Nc2sc3c(c2C(=O)O)CCC(C)C3)o1 (stereo not given) as the compound, how does the solubility kinetic read?
A: > 47.9 µg/mL

Q: With O=C(CSCc1c(F)cccc1Cl)NCc1ccncc1 as the compound, how does the solubility kinetic read?
A: > 48.7 µg/mL

Q: For COc1ccc(CN2CCNCC2)c(OC)c1OC.Cl, which solubility kinetic is on record?
A: 40.3 µg/mL

Q: With O=C(COC(=O)C1=COCCO1)Nc1ccc(Cl)cn1 as the compound, how does the solubility kinetic read?
A: > 44.8 µg/mL

Q: Which solubility kinetic does the source give for COc1ccc(C)cc1Nc1nc(-c2ccccc2O)nc2ccccc12 here?
A: < 0.3 µg/mL

Q: For CN1CCN(c2cc3c(cc2F)c(=O)c(C(=O)O)cn3CCF)CC1, which solubility kinetic is on record?
A: > 52.7 µg/mL

Q: Which solubility kinetic does the source give for CCOc1ccccc1NC(=O)c1cnccn1 here?
A: > 36.5 µg/mL

Q: With O=C(NC(=S)NCC1CCCO1)c1ccco1 (stereo not given) as the compound, how does the solubility kinetic read?
A: 37.6 µg/mL (≈ 148 µM)

Q: For O=C1c2cccc3cccc(c23)C(=O)N1c1ccccn1, which solubility kinetic is on record?
A: 40.4 µg/mL (≈ 147 µM)

Q: Which solubility kinetic does the source give for O=c1c2[nH]c3ccc(F)cc3c2ncn1Cc1ccncc1 here?
A: 3.3 µg/mL (≈ 11.2 µM)

Q: For O=[N+]([O-])c1ccc2ncnc(Nc3ccc4c(c3)OCCO4)c2c1, which solubility kinetic is on record?
A: 0.2 µg/mL (≈ 0.617 µM)

Q: For CCOC(=O)C1=C(COC(=O)c2cccc(Cl)c2)NC(=O)NC1C (stereo not given), which solubility kinetic is on record?
A: 46.2 µg/mL (≈ 131 µM)

Q: Which solubility kinetic does the source give for N#C/C(=C\c1cccc(O)c1)C(=O)Nc1ccc2c(c1)OCCO2 here?
A: 2 µg/mL (≈ 6.21 µM)

Q: With O=C(COC(=O)c1cccc(Cl)c1)NCc1ccccc1 as the compound, how does the solubility kinetic read?
A: 4.6 µg/mL (≈ 15.1 µM)

Q: Which solubility kinetic does the source give for Cc1nnc(SCC(=O)Nc2ccc(N(C)C)cc2)n(N)c1=O here?
A: > 50.2 µg/mL

Q: With O=C(Nc1ccccc1Cl)c1cc[n+]([O-])cc1 as the compound, how does the solubility kinetic read?
A: > 37.3 µg/mL

Q: Which solubility kinetic does the source give for COc1ccc(-c2nc3n(c(=O)c2C#N)CCS3)c(OC)c1 here?
A: > 47.3 µg/mL

Q: With O=C(Nc1ccc2c(c1)Cc1ccccc1-2)c1cccnc1 as the compound, how does the solubility kinetic read?
A: 1.4 µg/mL (≈ 4.89 µM)

Q: Which solubility kinetic does the source give for CCOC(=O)CNC(=O)Cc1ccc(Cl)cc1 here?
A: > 38.4 µg/mL

Q: With CCCS(=O)(=O)N1CCN=C1SCc1cccc(F)c1 as the compound, how does the solubility kinetic read?
A: 39.6 µg/mL (≈ 125 µM)

Q: Which solubility kinetic does the source give for CNC(=S)Nc1cccc(C(=O)OC)c1 here?
A: > 33.6 µg/mL

Q: With Oc1ccc(/C=N/N2CCCCC2)c(O)c1O as the compound, how does the solubility kinetic read?
A: > 35.4 µg/mL

Q: For O=C(COC(=O)C1C2CC3OC(=O)C1C3C2)Nc1ccc(Cl)cc1 (stereo not given), which solubility kinetic is on record?
A: 48.8 µg/mL (≈ 140 µM)

Q: Which solubility kinetic does the source give for CCCc1cc(NCCCN(C)C)n2c(nc3ccccc32)c1C#N here?
A: 40.5 µg/mL (≈ 121 µM)

Q: For Cc1ccc(N2C(=O)C3C=NNC3C2=O)cc1 (stereo not given), which solubility kinetic is on record?
A: > 34.4 µg/mL

Q: For CCCNC(=O)c1cnc(-c2ccccc2)nc1-c1ccccc1, which solubility kinetic is on record?
A: 1 µg/mL (≈ 3.15 µM)

Q: With CC(=O)c1ccc(N2CCN(C(=O)c3cccs3)CC2)c(F)c1 as the compound, how does the solubility kinetic read?
A: > 49.9 µg/mL

Q: For CCc1nc2oc3ccccc3c(=O)c2c(=O)n1-c1ccc(C)cc1, which solubility kinetic is on record?
A: 44.2 µg/mL (≈ 133 µM)

Q: With O=c1sc2ccccc2c(N2CCCCC2)c1[N+](=O)[O-] as the compound, how does the solubility kinetic read?
A: 20.4 µg/mL (≈ 70.3 µM)

Q: With Cc1ccnc(SC2CC(=O)N(c3ccc(C(C)C)cc3)C2=O)n1 (stereo not given) as the compound, how does the solubility kinetic read?
A: > 51.2 µg/mL

Q: With COc1ccc(NC(=O)CO/N=C2/CCCc3nonc32)c(OC)c1 as the compound, how does the solubility kinetic read?
A: > 52 µg/mL

Q: For CC(C)Oc1ccc(S(=O)(=O)N2CCOCC2)cc1NC(=O)Cc1ccsc1, which solubility kinetic is on record?
A: 31.8 µg/mL (≈ 74.9 µM)

Q: With COc1ccc(Cn2cc([N+](=O)[O-])nc2C)cc1[N+](=O)[O-] as the compound, how does the solubility kinetic read?
A: > 43.8 µg/mL

Q: With COc1ccc(NC(=O)Cn2c(=O)oc3ccccc32)cc1 as the compound, how does the solubility kinetic read?
A: 35 µg/mL (≈ 117 µM)

Q: For CCn1cc(S(=O)(=O)N2CCc3ccccc3C2)cn1, which solubility kinetic is on record?
A: > 43.7 µg/mL

Q: With Cl.OC1(C#CCN2CCCC2)CCCCC1 as the compound, how does the solubility kinetic read?
A: 34.2 µg/mL
